Patent US20140079784A1, “AEROSOLIZED LFA-1 ANTAGONISTS FOR USE IN LOCALIZED TREATMENT OF IMMUNE RELATED DISORDERS” (SARCODE BIOSCIENCE INC., priority 2008, published 2014)
Where two headings read alike, the source gives them in different places.

Tests used:
[1] = tested on: human mononuclear cells (PBMC) stimulated with staphylococcal enterotoxin B (SEB); assay: cells; format: cell-based
LFA-1 = molecular target: T1, LFA-1 (Homo sapiens, UniProt P20701); conditions: >90% occupancy of LFA-1; cited from earlier work
T1 construct: >90% occupancy of LFA-1 with efalizumab led to a greater than 50% clinical improvement in PASI score in a clinical trial; host or cells: leukocytes of psoriasis patients (in vivo)
T1 sequence (P20701 26-1170): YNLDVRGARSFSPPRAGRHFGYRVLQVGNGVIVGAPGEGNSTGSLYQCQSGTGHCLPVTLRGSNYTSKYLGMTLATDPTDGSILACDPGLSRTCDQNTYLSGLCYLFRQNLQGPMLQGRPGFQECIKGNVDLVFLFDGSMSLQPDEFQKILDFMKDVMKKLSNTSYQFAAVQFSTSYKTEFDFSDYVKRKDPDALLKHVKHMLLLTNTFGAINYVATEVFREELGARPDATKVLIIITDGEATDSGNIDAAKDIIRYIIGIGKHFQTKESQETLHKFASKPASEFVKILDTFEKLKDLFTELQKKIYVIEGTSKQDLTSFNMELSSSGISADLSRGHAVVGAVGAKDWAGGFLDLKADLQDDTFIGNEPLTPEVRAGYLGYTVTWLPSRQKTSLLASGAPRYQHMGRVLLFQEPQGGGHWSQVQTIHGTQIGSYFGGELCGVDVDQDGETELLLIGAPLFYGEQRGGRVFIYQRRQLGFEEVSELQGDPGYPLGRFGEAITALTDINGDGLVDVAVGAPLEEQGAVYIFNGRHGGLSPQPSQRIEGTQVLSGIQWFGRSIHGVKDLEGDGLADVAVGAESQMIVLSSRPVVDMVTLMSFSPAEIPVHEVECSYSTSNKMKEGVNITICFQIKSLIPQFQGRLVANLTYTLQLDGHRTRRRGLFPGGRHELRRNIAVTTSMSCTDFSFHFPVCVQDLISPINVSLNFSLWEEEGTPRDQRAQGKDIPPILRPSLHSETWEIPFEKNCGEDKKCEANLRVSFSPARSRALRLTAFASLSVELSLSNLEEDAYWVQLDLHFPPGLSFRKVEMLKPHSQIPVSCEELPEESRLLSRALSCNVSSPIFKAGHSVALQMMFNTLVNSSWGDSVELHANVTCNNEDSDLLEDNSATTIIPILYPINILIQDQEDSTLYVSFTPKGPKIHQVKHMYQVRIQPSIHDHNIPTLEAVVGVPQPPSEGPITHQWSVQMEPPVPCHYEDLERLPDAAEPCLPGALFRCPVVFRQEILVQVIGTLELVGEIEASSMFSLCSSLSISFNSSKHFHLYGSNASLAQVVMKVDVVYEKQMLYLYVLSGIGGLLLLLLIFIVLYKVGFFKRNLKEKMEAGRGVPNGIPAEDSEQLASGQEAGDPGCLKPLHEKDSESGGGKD
T1 sequence (P05107 23-769 partner): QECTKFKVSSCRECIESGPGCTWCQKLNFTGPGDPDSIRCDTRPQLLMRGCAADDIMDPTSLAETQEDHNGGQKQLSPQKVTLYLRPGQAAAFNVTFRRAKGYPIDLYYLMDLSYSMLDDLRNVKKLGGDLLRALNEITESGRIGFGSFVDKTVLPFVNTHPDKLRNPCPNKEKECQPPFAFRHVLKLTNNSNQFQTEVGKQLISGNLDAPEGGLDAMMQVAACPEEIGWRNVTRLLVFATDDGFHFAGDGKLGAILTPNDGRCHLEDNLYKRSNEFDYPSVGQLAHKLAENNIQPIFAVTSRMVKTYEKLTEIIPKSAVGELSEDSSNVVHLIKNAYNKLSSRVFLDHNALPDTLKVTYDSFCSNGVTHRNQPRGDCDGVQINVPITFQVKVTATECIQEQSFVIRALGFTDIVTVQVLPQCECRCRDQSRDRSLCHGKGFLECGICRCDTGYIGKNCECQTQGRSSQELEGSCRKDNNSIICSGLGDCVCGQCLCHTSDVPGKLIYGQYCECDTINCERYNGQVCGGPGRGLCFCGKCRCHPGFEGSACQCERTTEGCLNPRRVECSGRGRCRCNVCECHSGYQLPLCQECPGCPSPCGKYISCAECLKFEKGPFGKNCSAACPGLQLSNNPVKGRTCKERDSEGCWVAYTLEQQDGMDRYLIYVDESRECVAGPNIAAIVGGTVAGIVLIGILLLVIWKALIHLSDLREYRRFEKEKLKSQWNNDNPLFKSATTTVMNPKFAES

Molecule | EC50 ([1]; read-out: EC50 Cytokine Release GM-CSF) [µM] | EC50 ([1]; read-out: EC50 Cytokine Release IFNγ) [µM] | EC50 ([1]; read-out: EC50 Cytokine Release IL-1α) [µM] | EC50 ([1]; read-out: EC50 Cytokine Release IL-1β) [µM] | EC50 ([1]; read-out: EC50 Cytokine Release IL-2) [µM] | EC50 ([1]; read-out: EC50 Cytokine Release IL-3) [µM] | EC50 ([1]; read-out: EC50 Cytokine Release IL-4) [µM] | EC50 ([1]; read-out: EC50 Cytokine Release IL-5) [µM] | EC50 ([1]; read-out: EC50 Cytokine Release IL-6) [µM] | EC50 ([1]; read-out: EC50 Cytokine Release IL-10) [µM] | EC50 ([1]; read-out: EC50 Cytokine Release IL-12p40) [µM] | EC50 ([1]; read-out: EC50 Cytokine Release IL-13) [µM] | EC50 ([1]; read-out: EC50 Cytokine Release IP-10) [µM] | EC50 ([1]; read-out: EC50 Cytokine Release MCP-1) [µM] | EC50 ([1]; read-out: EC50 Cytokine Release MIP-1α) [µM] | EC50 ([1]; read-out: EC50 Cytokine Release TNF-α) [µM] | clinical improvement in PASI score (LFA-1)
O=C(NC(Cc1cc(=O)[nH]c2ccccc12)C(=O)O)c1ccc(Cl)cc1 (centres unmarked) [Rebamipide] | > 1000 | > 1000 | > 1000 | > 1000 | > 1000 | > 1000 | > 1000 | > 1000 | > 1000 | > 1000 | > 1000 | > 1000 | > 1000 | > 1000 | > 1000 | > 1000 | –
efalizumab: anti-LFA-1 (CD11a) antibody evaluated in plaque psoriasis | – | – | – | – | – | – | – | – | – | – | – | – | – | – | – | – | greater than 50%
